We go through 15 molecules from ChEMBL document CHEMBL1152232, “Muscarinic acetylcholine receptor antagonists: SAR and optimization of tyrosine ureas” (Bioorg Med Chem Lett, 2008).

The target of data set [1] is T1, Muscarinic acetylcholine receptor M2 (Homo sapiens, UniProt P08172).
T1 sequence (P08172 whole entry): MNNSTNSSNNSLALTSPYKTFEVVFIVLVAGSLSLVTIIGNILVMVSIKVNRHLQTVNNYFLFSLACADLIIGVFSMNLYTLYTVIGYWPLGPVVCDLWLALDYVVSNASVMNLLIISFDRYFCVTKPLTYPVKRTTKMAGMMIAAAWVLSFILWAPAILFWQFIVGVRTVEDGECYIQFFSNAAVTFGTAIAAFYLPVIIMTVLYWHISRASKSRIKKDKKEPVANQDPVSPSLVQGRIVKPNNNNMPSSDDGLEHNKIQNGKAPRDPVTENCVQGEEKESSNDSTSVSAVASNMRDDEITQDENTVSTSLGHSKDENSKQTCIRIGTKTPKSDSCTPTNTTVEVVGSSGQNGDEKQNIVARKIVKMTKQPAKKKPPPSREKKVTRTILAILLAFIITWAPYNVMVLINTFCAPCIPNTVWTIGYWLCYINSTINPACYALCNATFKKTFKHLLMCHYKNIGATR
In words: Antagonist activity at human recombinant muscarinic M2 receptor expressed in CHO cells coexpressing chimeric G protein Gqi5 assessed as inhibition of acetylcholine-induced intracellular Ca2+ mobilization by FLIPR assay. The data set is classed as functional, cell-based. (A change in cytosolic calcium serves as a functional read-out for many receptors and channels.)

Data set [2] has as its target Muscarinic acetylcholine receptor M1 and M3 (Homo sapiens) (UniProt P20309+P11229). In words: Selectivity for human recombinant muscarinic M3 receptor over human recombinant muscarinic M1 receptor.
Data set [3] has as its target Muscarinic acetylcholine receptors; M2 & M3 (Homo sapiens) (UniProt P20309+P08172). As to the kind of experiment: Selectivity for human recombinant muscarinic M3 receptor over human recombinant muscarinic M2 receptor.
In data set [4] the target is T2, Muscarinic acetylcholine receptor M1 (Homo sapiens, UniProt P11229).
T2 sequence (P11229 whole entry): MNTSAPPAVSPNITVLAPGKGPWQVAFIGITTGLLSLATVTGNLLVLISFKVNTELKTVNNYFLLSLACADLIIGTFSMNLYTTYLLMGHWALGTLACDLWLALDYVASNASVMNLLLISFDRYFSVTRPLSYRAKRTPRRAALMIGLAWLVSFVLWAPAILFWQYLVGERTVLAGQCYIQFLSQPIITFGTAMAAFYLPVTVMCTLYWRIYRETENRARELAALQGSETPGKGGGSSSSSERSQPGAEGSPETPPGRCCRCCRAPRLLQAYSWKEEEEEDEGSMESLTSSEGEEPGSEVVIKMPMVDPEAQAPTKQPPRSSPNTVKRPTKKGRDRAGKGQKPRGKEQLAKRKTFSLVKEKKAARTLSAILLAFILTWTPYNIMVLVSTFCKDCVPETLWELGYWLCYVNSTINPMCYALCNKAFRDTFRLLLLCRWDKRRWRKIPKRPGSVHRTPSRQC
In words: Antagonist activity at human recombinant muscarinic M1 receptor expressed in CHO cells assessed as inhibition of acetylcholine-induced intracellular Ca2+ mobilization by FLIPR assay. The data set is classed as functional, cell-based.

Data set [5] deals with Muscarinic acetylcholine receptor M3 (Homo sapiens, UniProt P20309). As to the kind of experiment: Antagonist activity at human recombinant muscarinic M3 receptor expressed in CHO cells assessed as inhibition of acetylcholine-induced intracellular Ca2+ mobilization by FLIPR assay. It counts as functional, cell-based.
Chain of Muscarinic acetylcholine receptor M3 (P20309 whole entry, the tested form may be a part): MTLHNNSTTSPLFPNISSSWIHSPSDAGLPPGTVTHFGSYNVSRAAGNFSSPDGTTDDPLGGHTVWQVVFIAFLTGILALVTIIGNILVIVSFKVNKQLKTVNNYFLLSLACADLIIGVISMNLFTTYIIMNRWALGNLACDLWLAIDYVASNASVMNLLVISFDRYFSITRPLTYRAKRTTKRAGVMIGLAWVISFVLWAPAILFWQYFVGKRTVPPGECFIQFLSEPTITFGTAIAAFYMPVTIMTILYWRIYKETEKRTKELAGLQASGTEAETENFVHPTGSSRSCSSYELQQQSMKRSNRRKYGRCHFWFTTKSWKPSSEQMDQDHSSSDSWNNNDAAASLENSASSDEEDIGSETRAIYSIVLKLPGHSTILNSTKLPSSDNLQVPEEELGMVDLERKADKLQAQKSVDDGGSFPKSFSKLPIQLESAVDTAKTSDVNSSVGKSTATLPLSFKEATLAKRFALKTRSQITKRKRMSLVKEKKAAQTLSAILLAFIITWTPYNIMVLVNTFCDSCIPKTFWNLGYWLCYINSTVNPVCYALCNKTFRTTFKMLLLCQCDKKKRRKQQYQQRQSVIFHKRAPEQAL
Data set [6] is described as follows: Permeability across artificial membrane. The data set is classed as ADME. The settings on record: PAMPA; read-out: permeability. Background: The PAMPA barrier holds no transporters, so it reflects passive diffusion.

Chain of Muscarinic acetylcholine receptors; M2 & M3 (Homo sapiens) (P20309 whole entry, looked up, one chain of several): as the sequence (P20309 whole entry, the tested form may be a part) above
Chain of Muscarinic acetylcholine receptor M1 and M3 (Homo sapiens) (P20309 whole entry, looked up, one chain of several): as the sequence (P20309 whole entry, the tested form may be a part) above

For the molecule `CCOC(=O)c1ccc(NC(=O)N[C@@H](Cc2ccc(O)cc2)C(=O)NC2CCN(CC)C2)cc1` (stereo partly drawn), the IC50 (commonly the concentration that gives 50% inhibition) is 2510 nM in data set [1], more than 3160 nM in data set [4] and 794 nM in data set [5]. Moreover, the Selectivity ratio in data set [2] was 100; in data set [3], 10.

Turning to `C=CC[N+]1(Cc2cccc(O)c2)CCC[C@H](NC(=O)[C@H](Cc2ccc(O)cc2)NC(=O)Nc2ccc(C(=O)OC(C)C)cc2)C1` (stereo partly drawn), the Kb in data set [1] (read-out: pA2 (converted)) was 1.58 nM; in data set [4] (read-out: pA2 (converted)), 15.8 nM; in data set [5] (read-out: pA2 (converted)), 0.1 nM. For the same molecule, the Selectivity ratio was 100 in data set [2] and more than 10 in data set [3].

Regarding `CCOC(=O)c1ccc(NC(=O)N[C@@H](Cc2ccc(O)cc2)C(=O)NC2CCN(Cc3ccccc3)C2)cc1` (stereo partly drawn), the IC50 in data set [1] is 200 nM; in data set [4], 2000 nM; in data set [5], 15.8 nM. Moreover, the Selectivity ratio worked out at 100 in data set [2] and 10 in data set [3].

On to `CC(C)OC(=O)c1ccc(NC(=O)N[C@@H](Cc2ccc(O)cc2)C(=O)N[C@H]2CCC[N+](C)(Cc3cccc(O)c3)C2)cc1.[I-]` (stereo partly drawn), for which the Papp in data set [6] was less than 0.3 ×10⁻⁶ cm/s.

With `CCOC(=O)c1ccc(NC(=O)N[C@@H](Cc2ccc(O)cc2)C(=O)NC2CCN(Cc3ccccc3OC)C2)cc1` (stereo partly drawn), the values for the 50% inhibitory concentration (IC50) in data set [1], in data set [4] and in data set [5] were 158 nM, 1000 nM and 50.1 nM, respectively. Also, the Selectivity ratio in data set [2] worked out at 100; in data set [3], 10.

Regarding `CCOC(=O)c1ccc(NC(=O)N[C@@H](Cc2ccc(O)cc2)C(=O)NC2CCN(Cc3cccc(O)c3)C2)cc1` (stereo partly drawn), the IC50 in data set [1] is 158 nM; in data set [4], 794 nM; in data set [5], 20 nM. For the same molecule, the Selectivity ratio in data set [2] was determined as 100; in data set [3], 10.

As for `CC(C)OC(=O)c1ccc(NC(=O)N[C@@H](Cc2ccc(O)cc2)C(=O)NC2CCN(Cc3ccc(O)cc3)C2)cc1` (stereo partly drawn), the results for the IC50 in data set [1], in data set [4] and in data set [5] were 79.4 nM, 1000 nM and 5.01 nM, respectively. The Selectivity ratio is 100 in data set [2] and more than 10 in data set [3].

For `CCOC(=O)c1ccc(NC(=O)N[C@@H](Cc2ccc(O)cc2)C(=O)NC2CCN(Cc3ccc(OC)cc3)C2)cc1` (stereo partly drawn), the IC50 is 251 nM in data set [1], 501 nM in data set [4] and 20 nM in data set [5]. Further, the Selectivity ratio is 100 in data set [2] and 10 in data set [3].

For the molecule `CCOC(=O)c1ccc(NC(=O)N[C@@H](Cc2ccc(O)cc2)C(=O)NC2CCN(Cc3ccc4c(c3)OCO4)C2)cc1` (stereo partly drawn), the IC50 was 200 nM in data set [1], 1000 nM in data set [4] and 31.6 nM in data set [5]. In addition, the figures for the Selectivity ratio in data set [2] and in data set [3] were 100 and 10, respectively.

As for `CCOC(=O)c1ccc(NC(=O)N[C@@H](Cc2ccc(O)cc2)C(=O)NC2CCN(Cc3ccc(O)cc3)C2)cc1` (mixture of isomers), the Selectivity ratio in data set [2] turned out to be 100; in data set [3], 10.

As for `CCOC(=O)c1ccc(NC(=O)N[C@@H](Cc2ccc(O)cc2)C(=O)NC2CCN(Cc3cccc(C(F)(F)F)c3)C2)cc1` (stereo partly drawn), the IC50 is 631 nM in data set [1], more than 3160 nM in data set [4] and 15.8 nM in data set [5]. For the same molecule, the Selectivity ratio worked out at 100 in data set [2] and 10 in data set [3].

With `CCOC(=O)c1ccc(NC(=O)N[C@@H](Cc2ccc(O)cc2)C(=O)NC2CCN(Cc3cccc(OC)c3)C2)cc1` (stereo partly drawn), the IC50 was 316 nM in data set [1], 2510 nM in data set [4] and 25.1 nM in data set [5]. In addition, the Selectivity ratio in data set [2] was found to be 100; in data set [3] it was 10.

As to `CCOC(=O)c1ccc(NC(=O)N[C@@H](Cc2ccc(O)cc2)C(=O)NC2CCN(CC3CC3)C2)cc1` (stereo partly drawn), the IC50 in data set [1] was 100 nM; in data set [4], 631 nM; in data set [5], 25.1 nM. Further, the Selectivity ratio in data set [2] came to 100; in data set [3], 10.

Take `CCOC(=O)c1ccc(NC(=O)N[C@@H](Cc2ccc(O)cc2)C(=O)NC2CCN(Cc3cccc(C#N)c3)C2)cc1` (stereo partly drawn): the figures for the IC50 in data set [1], in data set [4] and in data set [5] were 100 nM, 251 nM and 6.31 nM, respectively. In addition, the Selectivity ratio in data set [2] worked out at 100; in data set [3], 10.

`CCOC(=O)c1ccc(NC(=O)N[C@@H](Cc2ccc(O)cc2)C(=O)NC2CCN(Cc3cccc(Cl)c3)C2)cc1` (stereo partly drawn): the IC50 is 126 nM in data set [1], 1260 nM in data set [4] and 7.94 nM in data set [5]. Further, the Selectivity ratio turned out to be 100 in data set [2] and 10 in data set [3].
